In US12508261B2, “Methods of treating depression with vortioxetine” (Rundle Research LLC, priority 2017, dated 2025):

Experiment: Regression model estimating vortioxetine half-life and MAOI delay from total body fat and steady-state plasma concentration (CYP2D6 metabolizer status)
Parameters: species or system human
Text: Data obtained in the study described in Example 1 and Table 1 provided the basis for a regression model (having a r^2 value of 88%) based on total body fat and steady-state vortioxetine plasma concentration. Because the steady-state plasma concentration of vortioxetine correlates with metabolizer status, this regression provides a means of estimating vortioxetine half-life for patients based on total body fat and CYP2D6 metabolizer status.
Alternatively, the delay period can be calculated based on any particular values in Table 1, or any statistical parameter for characterizing the subject population of Table, such as the arithmetic mean, geometric mean, maximum, minimum, maximum or minimum 90% confidence interval, etc. of the half-life (e.g., 7.5×the average t1/2, 7.5×the maximum t1/2, and so forth, or the 21 day equivalency to a normal weight extensive metabolizer subject, based on the average t1/2 or the maximum t1/2 or any of the aforementioned statistically parameters).

[1] = Extensive(a) average of obese steady-state concentration for extensive metabolizers, total fat 60 kg
[2] = Extensive(a) average of obese steady-state concentration for extensive metabolizers, total fat 70 kg
[3] = Extensive(a) average of obese steady-state concentration for extensive metabolizers, total fat 80 kg
[4] = Extensive(a) average of obese steady-state concentration for extensive metabolizers, total fat 90 kg
[5] = Extensive(a) average of obese steady-state concentration for extensive metabolizers, total fat 100 kg
[6] = Extensive(b) high of extensive metabolizers, total fat 40 kg
[7] = Extensive(b) high of extensive metabolizers, total fat 50 kg
[8] = Extensive(b) high of extensive metabolizers, total fat 60 kg
[9] = Extensive(b) high of extensive metabolizers, total fat 70 kg
[10] = Extensive(b) high of extensive metabolizers, total fat 80 kg
[11] = Extensive(b) high of extensive metabolizers, total fat 90 kg
[12] = Extensive(b) high of extensive metabolizers, total fat 100 kg
[13] = IM(c) average of intermediate metabolizer values, total fat 10 kg
[14] = IM(c) average of intermediate metabolizer values, total fat 20 kg
[15] = IM(c) average of intermediate metabolizer values, total fat 30 kg
[16] = IM(c) average of intermediate metabolizer values, total fat 40 kg
[17] = IM(c) average of intermediate metabolizer values, total fat 50 kg
[18] = IM(c) average of intermediate metabolizer values, total fat 60 kg
[19] = IM(c) average of intermediate metabolizer values, total fat 70 kg
[20] = IM(c) average of intermediate metabolizer values, total fat 80 kg
[21] = IM(c) average of intermediate metabolizer values, total fat 90 kg
[22] = IM(c) average of intermediate metabolizer values, total fat 100 kg
[23] = IM(d) high of IM values, total fat 10 kg
[24] = IM(d) high of IM values, total fat 20 kg
[25] = IM(d) high of IM values, total fat 30 kg
[26] = IM(d) high of IM values, total fat 40 kg
[27] = IM(d) high of IM values, total fat 50 kg
[28] = IM(d) high of IM values, total fat 60 kg
[29] = IM(d) high of IM values, total fat 70 kg
[30] = IM(d) high of IM values, total fat 80 kg
[31] = IM(d) high of IM values, total fat 90 kg
[32] = IM(d) high of IM values, total fat 100 kg
[33] = PM(e) estimated poor metabolizer values, total fat 10 kg
[34] = PM(e) estimated poor metabolizer values, total fat 20 kg
[35] = PM(e) estimated poor metabolizer values, total fat 30 kg
[36] = PM(e) estimated poor metabolizer values, total fat 40 kg
[37] = PM(e) estimated poor metabolizer values, total fat 50 kg
[38] = PM(e) estimated poor metabolizer values, total fat 60 kg
[39] = PM(e) estimated poor metabolizer values, total fat 70 kg
[40] = PM(e) estimated poor metabolizer values, total fat 80 kg
[41] = PM(e) estimated poor metabolizer values, total fat 90 kg
[42] = PM(e) estimated poor metabolizer values, total fat 100 kg

For Cc1ccc(Sc2ccccc2N2CCNCC2)c(C)c1 [vortioxetine], the “Half-Life Estimates” value (Extensive(a) average of obese steady-state concentration for extensive metabolizers, total fat 10 kg) was 21 h, the “Half-Life Estimates” value (Extensive(a) average of obese steady-state concentration for extensive metabolizers, total fat 20 kg) was 32 h and the “Half-Life Estimates” value (Extensive(a) average of obese steady-state concentration for extensive metabolizers, total fat 30 kg) was 42 h. The “Half-Life Estimates” value (Extensive(a) average of obese steady-state concentration for extensive metabolizers, total fat 40 kg) was 52 h, the “Half-Life Estimates” value (Extensive(a) average of obese steady-state concentration for extensive metabolizers, total fat 50 kg) was 62 h and the “Half-Life Estimates” value [1] was 73 h. For the same molecule, the “Weeks of Delay (7.5 X half-life)” value [1] was 3.2 Weeks, the “Half-Life Estimates” value [2] was 83 h and the “Weeks of Delay (7.5 X half-life)” value [2] was 3.7 Weeks. For the same molecule, the “Half-Life Estimates” value [3] was 93 h, the “Weeks of Delay (7.5 X half-life)” value [3] was 4.2 Weeks and the “Half-Life Estimates” value [4] was 103 h. The “Weeks of Delay (7.5 X half-life)” value [4] was 4.6 Weeks, the “Half-Life Estimates” value [5] was 114 h and the “Weeks of Delay (7.5 X half-life)” value [5] was 5.1 Weeks. For the same molecule, the “Half-Life Estimates” value (Extensive(b) high of extensive metabolizers, total fat 10 kg) was 39 h, the “Half-Life Estimates” value (Extensive(b) high of extensive metabolizers, total fat 20 kg) was 49 h and the “Half-Life Estimates” value (Extensive(b) high of extensive metabolizers, total fat 30 kg) was 59 h. For the same molecule, the “Half-Life Estimates” value [6] was 70 h, the “Weeks of Delay (7.5 X half-life)” value [6] was 3.1 Weeks and the “Half-Life Estimates” value [7] was 80 h. For the same molecule, the “Weeks of Delay (7.5 X half-life)” value [7] was 3.6 Weeks, the “Half-Life Estimates” value [8] was 90 h and the “Weeks of Delay (7.5 X half-life)” value [8] was 4.0 Weeks. For the same molecule, the “Half-Life Estimates” value [9] was 100 h, the “Weeks of Delay (7.5 X half-life)” value [9] was 4.5 Weeks and the “Half-Life Estimates” value [10] was 111 h. The “Weeks of Delay (7.5 X half-life)” value [10] was 4.9 Weeks, the “Half-Life Estimates” value [11] was 121 h and the “Weeks of Delay (7.5 X half-life)” value [11] was 5.4 Weeks. The “Half-Life Estimates” value [12] was 131 h, the “Weeks of Delay (7.5 X half-life)” value [12] was 5.9 Weeks and the “Half-Life Estimates” value [13] was 102 h. For the same molecule, the “Weeks of Delay (7.5 X half-life)” value [13] was 4.6 Weeks, the “Half-Life Estimates” value [14] was 112 h and the “Weeks of Delay (7.5 X half-life)” value [14] was 5.0 Weeks. For the same molecule, the “Half-Life Estimates” value [15] was 123 h, the “Weeks of Delay (7.5 X half-life)” value [15] was 5.5 Weeks and the “Half-Life Estimates” value [16] was 133 h. For the same molecule, the “Weeks of Delay (7.5 X half-life)” value [16] was 5.9 Weeks, the “Half-Life Estimates” value [17] was 143 h and the “Weeks of Delay (7.5 X half-life)” value [17] was 6.4 Weeks. For the same molecule, the “Half-Life Estimates” value [18] was 153 h, the “Weeks of Delay (7.5 X half-life)” value [18] was 6.8 Weeks and the “Half-Life Estimates” value [19] was 164 h. For the same molecule, the “Weeks of Delay (7.5 X half-life)” value [19] was 7.3 Weeks, the “Half-Life Estimates” value [20] was 174 h and the “Weeks of Delay (7.5 X half-life)” value [20] was 7.8 Weeks. The “Half-Life Estimates” value [21] was 184 h, the “Weeks of Delay (7.5 X half-life)” value [21] was 8.2 Weeks and the “Half-Life Estimates” value [22] was 194 h. The “Weeks of Delay (7.5 X half-life)” value [22] was 8.7 Weeks, the “Half-Life Estimates” value [23] was 116 h and the “Weeks of Delay (7.5 X half-life)” value [23] was 5.2 Weeks. The “Weeks of Delay (21 day equivalency to Normal, 66 hr half-life)” value [23] was 5.3 Weeks, the “Half-Life Estimates” value [24] was 126 h and the “Weeks of Delay (7.5 X half-life)” value [24] was 5.6 Weeks. The “Weeks of Delay (21 day equivalency to Normal, 66 hr half-life)” value [24] was 5.7 Weeks, the “Half-Life Estimates” value [25] was 136 h and the “Weeks of Delay (7.5 X half-life)” value [25] was 6.1 Weeks. For the same molecule, the “Weeks of Delay (21 day equivalency to Normal, 66 hr half-life)” value [25] was 6.2 Weeks, the “Half-Life Estimates” value [26] was 147 h and the “Weeks of Delay (7.5 X half-life)” value [26] was 6.5 Weeks. For the same molecule, the “Weeks of Delay (21 day equivalency to Normal, 66 hr half-life)” value [26] was 6.7 Weeks, the “Half-Life Estimates” value [27] was 157 h and the “Weeks of Delay (7.5 X half-life)” value [27] was 7.0 Weeks. The “Weeks of Delay (21 day equivalency to Normal, 66 hr half-life)” value [27] was 7.1 Weeks, the “Half-Life Estimates” value [28] was 167 h and the “Weeks of Delay (7.5 X half-life)” value [28] was 7.5 Weeks. The “Weeks of Delay (21 day equivalency to Normal, 66 hr half-life)” value [28] was 7.6 Weeks, the “Half-Life Estimates” value [29] was 177 h and the “Weeks of Delay (7.5 X half-life)” value [29] was 7.9 Weeks. For the same molecule, the “Half-Life Estimates” value [30] was 188 h, the “Weeks of Delay (7.5 X half-life)” value [30] was 8.4 Weeks and the “Half-Life Estimates” value [31] was 198 h. For the same molecule, the “Weeks of Delay (7.5 X half-life)” value [31] was 8.8 Weeks, the “Weeks of Delay (21 day equivalency to Normal, 66 hr half-life)” value [31] was 9.0 Weeks and the “Half-Life Estimates” value [32] was 208 h. For the same molecule, the “Weeks of Delay (7.5 X half-life)” value [32] was 9.3 Weeks, the “Weeks of Delay (21 day equivalency to Normal, 66 hr half-life)” value [32] was 9.5 Weeks and the “Half-Life Estimates” value [33] was 215 h. The “Weeks of Delay (7.5 X half-life)” value [33] was 9.6 Weeks, the “Half-Life Estimates” value [34] was 225 h and the “Weeks of Delay (7.5 X half-life)” value [34] was 10.0 Weeks. For the same molecule, the “Half-Life Estimates” value [35] was 235 h, the “Weeks of Delay (7.5 X half-life)” value [35] was 10.5 Weeks and the “Half-Life Estimates” value [36] was 245 h. For the same molecule, the “Weeks of Delay (7.5 X half-life)” value [36] was 11.0 Weeks, the “Half-Life Estimates” value [37] was 256 h and the “Weeks of Delay (7.5 X half-life)” value [37] was 11.4 Weeks. The “Half-Life Estimates” value [38] was 266 h, the “Weeks of Delay (7.5 X half-life)” value [38] was 11.9 Weeks and the “Half-Life Estimates” value [39] was 276 h. The “Weeks of Delay (7.5 X half-life)” value [39] was 12.3 Weeks, the “Half-Life Estimates” value [40] was 286 h and the “Weeks of Delay (7.5 X half-life)” value [40] was 12.8 Weeks. For the same molecule, the “Half-Life Estimates” value [41] was 297 h, the “Weeks of Delay (7.5 X half-life)” value [41] was 13.2 Weeks and the “Half-Life Estimates” value [42] was 307 h. The “Weeks of Delay (7.5 X half-life)” value [42] was 13.7 Weeks.
